Data taken from US9603836B2, “Pyrrolidine-2, 5-dione derivatives, pharmaceutical compositions and methods for use as IDO1 inhibitors” (ITEOS THERAPEUTICS, priority 2014, dated 2017).

Assays:
[1] = tested on: Kynurenine; assay: In-vivo inhibition of blood kynurenine levels in healthy mice; parameters: species or system mouse; details: two hours
Description: The compounds of the present invention reduce the amount of Kynurenine in healthy mouse blood.
Briefly, mice were treated with either a suspension of one of the compounds of the present invention in 0.5% hydroxypropyl methylcellulose (HPMC) K4M/0.25% Tween 20 at different doses, or with a vehicle control (0.5% HPMC K4M/0.25% Tween 20), by the oral route by gavage (dosing volume 5 mL/kg, 10 mice per group). After two hours, blood was harvested, plasma was prepared and the amount of Kynurenine present was determined by LC-MS-MS (HPLC column Unison UK-Phenyl, 75×4.6, 3 μm, flow rate 0.8 mL/min, 4 minutes gradient from water+0.2% acetic acid to methanol+0.1% formic acid, retention time 2.7 min; API4000™ MS-MS system from AB Sciex, ESI+ mode, parent ion 209.2, daughter ion 94.1).

[2] = tested on: Kynurenine; assay: Inhibition of tryptophan degradation in CT26 tumor tissue; assay type: in vivo, Balb/c mice; details: 200 mg/kg oral twice per day, 2 h after administration
Text: (§1) In the present study, CT26 syngeneic tumors were implanted subcutaneously in Balb-c mice. More particularly, Five hundred thousand (500,000) CT26 colon carcinoma cancer cells [CT26.WT, available from the ATCC® CRL-2628™] were implanted subcutaneously in 7 weeks old Balb/c mice (day 0). Animals were randomized based on tumor size when tumor average reached 150 mm^3 (day 11) into different treatment cohorts (n=10/group). […] The tumor was removed, weighted and frozen on dry ice. Tumors were analyzed by LC/MS-MS for Kynurenine concentration.

[3] = tested on: 4T1 tumors; assay: In vivo efficacy in 4T1 breast cancer syngeneic model; parameters: species or system Balb/c mice; details: 4T1, 100 mg/kg BID oral
Description: In vivo efficacy studies for Compounds of the present invention were performed on 4T1 syngeneic tumor model of Balb/c mice implanted orthotopically in the mammary gland. One hundred thousand 4T1 breast cancer cells (ATCC® CRL-2539™)] were implanted orthotopically within the mammary gland of 7 weeks old Balb/c mice (day 0). Animals were randomized based on tumor size when tumor average reached 60 mm^3 (between day 7 and 11) into different treatment cohorts. The Compound of the present invention was administered orally twice per day (approximately at 9 am and 5 pm) starting the day of randomization. The Compounds were suspended into Methocel™ cellulose ether vehicle and sonicated before oral administration to animals using gavage needles. Treatment was administered daily until the end of the study. All experimental animals were monitored for body weight changes twice weekly. Tumor volume was measured twice a week by a caliper device and calculated with the following formula: Tumor volume=0.5×(length×width^2). Studies were terminated before tumor volumes reached 2000 mm. TGI (% tumor growth inhibition) was determined as […]

[4] = tested on: Kynurenine; assay: Inhibition of tryptophan degradation in 4T1 tumor tissue; assay type: in vivo, Balb/c mice; details: 200 mg/kg oral twice per day, 4 h after administration
Description: Compounds of this invention are capable of lowering kynurenine concentration within mouse tumors, for example 4T1 syngeneic tumors of Balb/c mice implanted orthotopically in the mammary gland. One hundred thousand 4T1 breast cancer cells were implanted orthotopically within the mammary gland of 7 weeks old Balb/c mice (day 0). Animals were randomized based on tumor size when tumor average reached 60 mm^3 (day 6) into different treatment cohorts (n=10/group). Animals were treated with Methocel vehicle from day 6 to 26 until tumors reached a size comprised between 1500 and 2000 mm^3. […] The tumor was removed, weighted and frozen on dry ice. Tumors were analyzed by LC/MS-MS for Kynurenine concentration.

[5] = tested on: CT26 tumors; assay: Tumor growth inhibition in CT26 colon syngeneic mouse tumor model; assay type: in vivo, Balb/c mice
Text: as §1
In a separate study, anti-tumor efficacy of IDO-1 inhibition was tested in the colon syngeneic mouse tumor model CT26 with a range of different treatment regimens. The model was essentially as described above, except that 1×10^6 cells in phosphate buffered saline (PBS) were implanted subcutaneously in the flank of 8 week old Balb/c females on day 0 (10 in each group). Mice were randomized into treatment groups (100 mg/kg BID, 200 mg/kg BID or 600 mg/kg BID) based on tumor size on day 9 when treatment started. The results are shown the following table and in FIG. 7.

[6] = tested on: PancO2 tumors; assay: In vivo efficacy in PancO2 pancreatic cancer syngeneic model; parameters: species or system C57/B16 mice; details: PancO2, 200 mg/kg BID oral
Description: In vivo efficacy studies of the Compounds of the present invention were performed on PancO2 syngeneic tumor model of C57/B16 mice implanted subcutaneously. Five millions PancO2 pancreas cancer cells were implanted subcutaneously to 7 weeks old C57/B16 mice (day 0). Animals were randomized based on tumor size when tumor average reached 60 mm^3 (between day 10 and 12) into different treatment cohorts. The Compound was administered orally twice per day (approximately at 9 am and 5 pm) starting the day of randomization. The Compound was suspended into Methocel vehicle and sonicated before oral administration to animals using gavage needles. Treatment was administered daily until the end of the study. All experimental animals were monitored for body weight changes weekly. Tumor volume was measured weekly using a caliper device and calculated with the following formula: Tumor volume=0.5×(length×width^2). Studies were terminated before tumor volumes reached 2000 mm. TGI (% tumor growth inhibition) was determined as
Treatment was administered daily until the end of the study. Tumor volume was measured weekly using a caliper device and calculated with the following formula: Tumor volume=0.5×(length×width^2). Mice were considered as dead when tumor size reached 400 mm^3. […] SEM refers to standard error of measurement.

## O=C1CC(c2c[nH]c3ccc(F)cc23)C(=O)N1 (racemic) [Compound 1, 3-(5-fluoro-1H-indol-3-yl)pyrrolidine-2,5-dione]
[1]; 100 mg/kg oral
  Kynurenine concentration in plasma (average ± standard error of the mean): 111.1 ± 27.0 ng/mL
  inhibition of circulating Kynurenine: 41%
[1]; 200 mg/kg oral
  Kynurenine concentration in plasma (average ± standard error of the mean): 77.7 ± 9.2 ng/mL
  inhibition of circulating Kynurenine: 59%
[2]
  Kynurenine concentration (ng/g tumor) Average ± SEM: 876 ± 68 ng/g tumor
  reduction of Kynurenine concentration: 59%
[3]
  Mean tumor volume on day 25: 443.7 mm^3
[3]; day 25
  TGI (Tumor growth inhibition): 43.4%
[4]
  Kynurenine concentration (ng/g tumor) Average ± SEM: 417.2 ± 55.7 ng/g tumor
  reduction of Kynurenine concentration: 47%
[5]; CT26, 100 mg/kg BID
  % TGI (D15): 29%
  % TGI (D17): 33%
  % TGI (D20): 20%
[5]; CT26, 200 mg/kg BID
  % TGI (D15): 38%
  % TGI (D17): 41%
  % TGI (D20): 34%
[5]; CT26, 600 mg/kg BID
  % TGI (D15): 36%
  % TGI (D17): 51%
  % TGI (D20): 38%
[6]
  Mean tumor volume on day 42: 457.0 mm^3
[6]; day 42
  TGI (Tumor growth inhibition): 26.2%
